Reference: patent US20240150365A1 (Hotspot Therapeutics, Inc., priority 2022, published 2024)
Read-outs that look alike come from different tables or passages of the source.

Tests used:
[1] = test system: NF-kB; experiment: NF-kB reporter assay in Jurkat cells stimulated with aCD3/aCD28/PMA; format: cell-based; conditions: Homo sapiens, Jurkat, read-out: NF-kB Reporter Assay IC50
Outline: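 Jurkat cells (25,000/well, serum-free RPMI 1640) preincubated 1 hr at 37° C with serially diluted compound, then stimulated with aCD3/aCD28/PMA (final 5 μg/mL, 5 μg/mL, 0.03 μg/mL) for 4 hr. Reporter luminescence read with One-Glo; IC50 derived.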

[2] = biological target: T1, MALT1 (Homo sapiens, UniProt Q9UDY8); experiment: MALT-1 Fluorogenic Peptide Cleavage Assay (MALT1 inhibition assay); format: biochemical; conditions: Avi-tagged FL MALT-1, Ac-LRSR-AMC peptide substrate, 30 min pre-incubation, 90 min reaction
T1 construct: Avi-tagged FL MALT-1 (Pharmaron, stored at −70° C.); Avi tag
T1 sequence (Q9UDY8 1-824): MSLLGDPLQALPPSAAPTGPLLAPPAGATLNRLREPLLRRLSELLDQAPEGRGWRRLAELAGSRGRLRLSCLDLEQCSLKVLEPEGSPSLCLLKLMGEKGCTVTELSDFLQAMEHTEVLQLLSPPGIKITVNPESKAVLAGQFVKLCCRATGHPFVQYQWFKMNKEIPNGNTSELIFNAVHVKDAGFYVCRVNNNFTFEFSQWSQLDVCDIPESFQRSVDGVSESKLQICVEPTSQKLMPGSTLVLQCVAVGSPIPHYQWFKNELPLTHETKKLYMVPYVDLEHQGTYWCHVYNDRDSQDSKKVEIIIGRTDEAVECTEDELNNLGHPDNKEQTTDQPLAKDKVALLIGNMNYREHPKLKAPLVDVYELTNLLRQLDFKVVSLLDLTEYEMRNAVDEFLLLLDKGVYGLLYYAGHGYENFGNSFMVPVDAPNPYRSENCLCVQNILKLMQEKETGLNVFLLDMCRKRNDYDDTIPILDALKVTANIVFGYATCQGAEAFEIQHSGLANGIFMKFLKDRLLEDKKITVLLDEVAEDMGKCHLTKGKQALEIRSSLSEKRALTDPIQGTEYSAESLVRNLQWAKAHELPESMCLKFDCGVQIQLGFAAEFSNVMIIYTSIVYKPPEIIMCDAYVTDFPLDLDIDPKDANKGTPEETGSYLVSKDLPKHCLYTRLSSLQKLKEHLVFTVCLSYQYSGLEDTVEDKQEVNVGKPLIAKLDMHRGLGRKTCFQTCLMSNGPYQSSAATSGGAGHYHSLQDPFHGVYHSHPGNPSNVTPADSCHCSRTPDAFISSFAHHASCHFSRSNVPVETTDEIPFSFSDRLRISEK
Outline: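 Avi-tagged full-length MALT1 pre-incubated 30 min with compound (2% DMSO final), then cleavage of Ac-LRSR-AMC followed over 90 min at room temperature. AMC fluorescence read at 342/441 nm; % inhibition fitted to sigmoidal curves for IC50.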

[3] = Jurkat cells, 1 hr compound incubation, aCD3/aCD28/PMA stimulation 4 hr, One-Glo readout

| IC50 [1, 3] [nM] | IC50 [2] [nM] | SMILES | IC50 [1] [nM] |
| --- | --- | --- | --- |
| 1000 to 2500 | 1000 to 2500 | COc1ncc2cnn(C)c2c1NS(=O)(=O)c1ccc(-c2cc(C3CC3)n[nH]2)nc1 [Example I-205, 6-(3-Cyclopropyl-1H-Pyrazol-5-yl)-N-(6-Methoxy-1-Methyl-1H-Pyrazolo[4,3-C]Pyridin-7-yl)Pyridine-3-Sulfonamide] | – |
| < 400 | < 400 | [2H]C([2H])([2H])n1ncc2ccc(OC)c(NS(=O)(=O)c3ccc(-n4cc(C)cn4)nc3)c21 [Example I-206, N-(6-Methoxy-1-(Methyl-D3)-1H-Indazol-7-yl)-6-(4-Methyl-1H-Pyrazol-1-yl)Pyridine-3-Sulfonamide] | – |
| < 400 | 1000 to 2500 | Cn1ncc2cccc(NS(=O)(=O)c3ccc(-n4ccc(C5CC5)n4)nc3)c21 [Example I-207, 6-(3-Cyclopropyl-1H-Pyrazol-1-yl)-N-(1-Methyl-1H-Indazol-7-yl)Pyridine-3-Sulfonamide] | – |
| < 400 | 1000 to 2500 | Cn1ncc2cccc(NS(=O)(=O)c3ccc(-n4cc(C5CC5)cn4)nc3)c21 [Example I-208, 6-(4-Cyclopropyl-1H-Pyrazol-1-yl)-N-(1-Methyl-1H-Indazol-7-yl)Pyridine-3-Sulfonamide] | – |
| < 400 | > 2500 | Cn1ccn(-c2ccc(S(=O)(=O)Nc3cccc4cnn(C)c34)cn2)c1=O [Example I-209, N-(1-Methyl-1H-Indazol-7-yl)-6-(3-Methyl-2-Oxo-2,3-Dihydro-1H-Imidazol-1-yl)Pyridine-3-Sulfonamide] | – |
| < 400 | > 2500 | COc1ccc(-c2ccc(S(=O)(=O)Nc3cccc4cnn(C)c34)cn2)cn1 [Example I-210, 6′-Methoxy-N-(1-Methyl-1H-Indazol-7-yl)-[2,3′-Bipyridine]-5-Sulfonamide] | – |
| 400 to 1000 | > 2500 | COc1ncc2cnn(C)c2c1NS(=O)(=O)c1ccc(-n2nccc2C(F)(F)F)nc1 [Example I-211, N-(6-Methoxy-1-Methyl-1H-Pyrazolo[4,3-C]Pyridin-7-yl)-6-(5-(Trifluoromethyl)-1H-Pyrazol-1-yl)Pyridine-3-Sulfonamide] | – |
| < 400 | < 400 | [2H]C([2H])([2H])n1ncc2ccc(OC)c(NS(=O)(=O)c3ccc(-n4cc(Cl)cn4)nc3)c21 [Example I-212, 6-(4-Chloro-1H-Pyrazol-1-yl)-N-(6-Methoxy-1-(Methyl-D3)-1H-Indazol-7-yl)Pyridine-3-Sulfonamide] | – |
| < 400 | < 400 | [2H]C([2H])([2H])Oc1ccc2cnn(C)c2c1NS(=O)(=O)c1ccc(-n2cc(Cl)cn2)nc1 [Example I-213, 6-(4-Chloro-1H-Pyrazol-1-yl)-N-(6-(Methoxy-D3)-1-Methyl-1H-Indazol-7-yl)Pyridine-3-Sulfonamide] | – |
| < 400 | 400 to 1000 | Cn1ncc2cccc(NS(=O)(=O)c3ccc(-c4cnc(C(F)(F)F)s4)nc3)c21 [Example I-214, N-(1-Methyl-1H-Indazol-7-yl)-6-(2-(Trifluoromethyl)Thiazol-5-yl)Pyridine-3-Sulfonamide] | – |
| > 2500 | > 2500 | COCCn1ncc2cccc(NS(=O)(=O)c3ccc(-n4ccc(C(C)C)n4)nc3)c21 [Example I-215, 6-(3-isopropyl-1H-pyrazol-1-yl)-N-(1-(2-methoxyethyl)-1H-indazol-7-yl)pyridine-3-sulfonamide] | – |
| > 2500 | > 2500 | COCCn1ncc2cccc(NS(=O)(=O)c3ccc(-n4nccc4C4CC4)nc3)c21 [Example I-216, 6-(5-Cyclopropyl-1H-Pyrazol-1-yl)-N-(1-(2-Methoxyethyl)-1H-Indazol-7-yl)Pyridine-3-Sulfonamide] | – |
| > 2500 | > 2500 | COCCn1ncc2cccc(NS(=O)(=O)c3ccc(-n4cc(C)cn4)nc3)c21 [Example I-217, N-(1-(2-Methoxyethyl)-1H-Indazol-7-yl)-6-(4-Methyl-1H-Pyrazol-1-yl)Pyridine-3-Sulfonamide] | – |
| > 2500 | > 2500 | COCCn1ncc2cccc(NS(=O)(=O)c3ccc(-c4cnn(C)c4C)nc3)c21 [Example I-218, 6-(1,5-Dimethyl-1H-Pyrazol-4-yl)-N-(1-(2-Methoxyethyl)-1H-Indazol-7-yl)Pyridine-3-Sulfonamide] | – |
| < 400 | > 2500 | Cn1ncc2cccc(NS(=O)(=O)c3ccc(-c4ccc(Cl)nc4)nc3)c21 [Example I-219, 6′-Chloro-N-(1-Methyl-1H-Indazol-7-yl)-[2,3′-Bipyridine]-5-Sulfonamide] | – |
| 400 to 1000 | > 2500 | Cn1ncc2cccc(NS(=O)(=O)c3ccc(-c4cccnc4Cl)nc3)c21 [Example I-220, 2′-Chloro-N-(1-Methyl-1H-Indazol-7-yl)-[2,3′-Bipyridine]-5-Sulfonamide] | – |
| < 400 | > 2500 | COc1ccc2cnn(C)c2c1NS(=O)(=O)c1ccc(N2CCOC2=O)nc1 [Example I-222, N-(6-Methoxy-1-Methyl-1H-Indazol-7-yl)-6-(2-Oxooxazolidin-3-yl)Pyridine-3-Sulfonamide] | – |
| < 400 | > 2500 | COc1ccc2cnn(C)c2c1NS(=O)(=O)c1ccc(N2CC(C)(C)OC2=O)nc1 [Example I-223, 6-(5,5-Dimethyl-2-Oxooxazolidin-3-yl)-N-(6-Methoxy-1-Methyl-1H-Indazol-7-yl)Pyridine-3-Sulfonamide] | – |
| < 400 | > 2500 | Cn1ncc2cccc(NS(=O)(=O)c3ccc(N4CC(C)(C)OC4=O)nc3)c21 [Example I-224, 6-(5,5-Dimethyl-2-Oxooxazolidin-3-yl)-N-(1-Methyl-1H-Indazol-7-yl)Pyridine-3-Sulfonamide] | – |
| < 400 | 400 to 1000 | COc1ccc2cnn(C)c2c1NS(=O)(=O)c1ccc(N2CCN(C)C2=O)nc1 [Example I-225, N-(6-Methoxy-1-Methyl-1H-Indazol-7-yl)-6-(3-Methyl-2-Oxoimidazolidin-1-yl)Pyridine-3-Sulfonamide] | – |
| < 400 | > 2500 | CN1CCN(c2ccc(S(=O)(=O)Nc3cccc4cnn(C)c34)cn2)C1=O [Example I-226, N-(1-Methyl-1H-Indazol-7-yl)-6-(3-Methyl-2-Oxoimidazolidin-1-yl)Pyridine-3-Sulfonamide] | – |
| < 400 | 1000 to 2500 | Cn1ncc2cccc(NS(=O)(=O)c3ccc(-n4ncc5c4CCCC5)nc3)c21 [Example I-227, N-(1-Methyl-1H-Indazol-7-yl)-6-(4,5,6,7-Tetrahydro-1H-Indazol-1-yl)Pyridine-3-Sulfonamide] | – |
| < 400 | 1000 to 2500 | Cn1cc(-c2ccc(S(=O)(=O)Nc3cccc4cnn(C)c34)cn2)nc1C(F)(F)F [Example I-228, N-(1-Methyl-1H-Indazol-7-yl)-6-(1-Methyl-2-(Trifluoromethyl)-1H-Imidazol-4-yl)Pyridine-3-Sulfonamide] | – |
| < 400 | < 400 | [2H]C([2H])([2H])n1ncc2ccc(OC)c(NS(=O)(=O)c3ccc(-n4cc(C5CC5)cn4)nc3)c21 [Example I-229, 6-(4-Cyclopropyl-1H-Pyrazol-1-yl)-N-(6-Methoxy-1-(Methyl-D3)-1H-Indazol-7-yl)Pyridine-3-Sulfonamide] | – |
| > 2500 | > 2500 | Cn1ncc2cccc(NS(=O)(=O)c3ccc(N4CCOC4=O)nc3)c21 [Example I-230, N-(1-Methyl-1H-Indazol-7-yl)-6-(2-Oxooxazolidin-3-yl)Pyridine-3-Sulfonamide] | – |
| > 2500 | > 2500 | COCCn1ncc2cccc(NS(=O)(=O)c3ccc(-n4ccc(C5CC5)n4)nc3)c21 [Example I-231, 6-(3-Cyclopropyl-1H-Pyrazol-1-yl)-N-(1-(2-Methoxyethyl)-1H-Indazol-7-yl)Pyridine-3-Sulfonamide] | – |
| > 2500 | > 2500 | COCCn1ncc2cccc(NS(=O)(=O)c3ccc(-n4nccc4C(C)C)nc3)c21 [Example I-232, 6-(5-isopropyl-1H-pyrazol-1-yl)-N-(1-(2-methoxyethyl)-1H-indazol-7-yl)pyridine-3-sulfonamide] | – |

| SMILES | IC50 [1, 3] [nM] | IC50 [2] [nM] | IC50 [1] [nM] |
| --- | --- | --- | --- |
| CN(C)c1ncccc1-c1ccc(S(=O)(=O)Nc2cccc3cnn(C)c23)cn1 [Example I-221, 2′-(Dimethylamino)-N-(1-Methyl-1H-Indazol-7-yl)-[2,3′-Bipyridine]-5-Sulfonamide] | – | > 2500 | 1000 to 2500 |
